Results as given in patent publication US5104897A, “Medical uses of halogen substituted diphenylsulfides” (Burroughs Wellcome Co., priority 1989, dated 1992).

Experiments:
Type in all cases: biochemical
[1] = system: Norepinephrine uptake (crude synaptosomal preparation); test: Uptake of 3H-norepinephrine in crude synaptosomal preparations of rat hypothalamus and striatum; conditions: [3H]1-norepinephrine, rat hypothalamus/striatum synaptosomes, 5 min preincubation, 3 min incubation, 37° C. minus 0° C. uptake; read-out: IC50 (Molar) for Inhibition of Biogenic Amine Uptake, Norepinephrine
Protocol: (§1) Activity Studies Uptake of ^3 H-Biogenic Amines in Crude Synaptosomal Preparations of Rat Hypothalamus and Striatum.
(§2) A 0.5 mL aliquot of a crude synaptosomal preparation prepared according to the technique of Ferris et al., J. Pharm. Exp. Ther., 181, 407 (1972) and Patrick et al., J. Pharm. Exp. Ther., 241, 152 (1987) was incubated in a standard incubation medium containing 10 μM iproniazid, 1 μM ascorbate and […] of either [^3 H]dopamine, [^3 H]1-norepinephrine or [^3 H]serotonin. Final volumes were 3 mL.
(§3) All incubations were conducted for 3 minutes under an atmosphere of 95% O2 -5% CO2. The uptake at 0° C. and 37° C. was determined in each experiment and the difference between the two determinations represented the accumulation of [^3 H]amine by the temperature-dependent uptake process. Test compounds were dissolved in the standard incubation medium and preincubated with the crude synaptosomal preparation for 5 mintes, before the addition of the labeled substrate.
(§4) Reactions were stopped by the addition of 2 mL of ice-cold 0.32M sucrose containing 25 mM Tris buffer, pH 7.4, and rapid cooling in an ice-bath. Samples were centrifuged at 49,600×g for 10 minutes. The resulting pellet was washed with 5 mL of 0.9% saline and again centrifuged. […] A 1 mL aliquot of the supernatant was taken for determination of radioactivity.

[2] = system: Dopamine uptake (crude synaptosomal preparation); test: Uptake of 3H-dopamine in crude synaptosomal preparations of rat hypothalamus and striatum; conditions: at 10^-5 (Molar by title), rat synaptosomes, mean of triplicate assay with S.E.M. < ±5%
Protocol: as §1, §2, §3, §4

[3] = system: Serotonin uptake (crude synaptosomal preparation); test: Uptake of 3H-serotonin in crude synaptosomal preparations of rat hypothalamus and striatum; conditions: rat hypothalamus/striatum synaptosomes, 5 min preincubation, 3 min incubation, 37° C. minus 0° C. uptake, read-out: IC50 (Molar) for Inhibition of Biogenic Amine Uptake, Serotonin
Protocol: as §1, §2, §3, §4

5-Chloro-2-((2-((methylamino)methyl)phenyl)thio)benzyl Alcohol [Example 5]
IC50 [1]: 110 nM
Percent inhibition of Dopamine uptake [2]: 38%
IC50 [3]: 21 nM

CN(C)Cc1ccccc1Sc1ccc(Cl)cc1CO.Cl [Example 2, 5-chloro-2-((2-((dimethylamino)methyl)phenyl)thio)benzyl alcohol hydrochloride]
IC50 [1]: 55 nM
Percent inhibition of Dopamine uptake [2]: 15%
IC50 [3]: 2.1 nM
